{"source": "paper PMC5218480", "about": "(PLoS ONE, 2017)", "test_system": "MV-4-11 cells", "experiment": "Gene expression microarray analysis (Affymetrix PrimeView) and GSEA", "format": "cell-based, human", "parameters": "RFU PODN (11730768_x_at) / Fold change /veh PODN (11730768_x_at) / RFU LINC00158 (11744669_a_at) / Fold change /veh LINC00158 (11744669_a_at) / RFU DUSP10 (11751237_a_at) / Fold change /veh DUSP10 (11751237_a_at) / RFU ID3 (11757404_x_at) / Fold change /veh ID3 (11757404_x_at) / RFU PLEKHG5 (11737974_s_at) / Fold change /veh PLEKHG5 (11737974_s_at) / RFU LRRC4B (11730491_at) / Fold change /veh LRRC4B (11730491_at) / RFU GIMAP4 (11747438_a_at) / Fold change /veh GIMAP4 (11747438_a_at) / RFU KRT8 (11758183_x_at) / Fold change /veh KRT8 (11758183_x_at) / RFU CNN1 (11734310_a_at) / Fold change /veh CNN1 (11734310_a_at) / RFU VPS37D (11726825_at) / Fold change /veh VPS37D (11726825_at) / RFU C10orf10 (11716522_x_at) / Fold change /veh C10orf10 (11716522_x_at) / RFU KIR2DL2 /// KIR2DL4 /// KIR2DL5A /// KIR2DL5B /// KIR2DS1 /// KIR2DS2 /// KIR2DS3 /// KIR2DS4 /// KIR3DL3 /// KIR3DL3 /// KIR3DS1 (11738374_at) / Fold change /veh KIR2DL2 /// KIR2DL4 /// KIR2DL5A /// KIR2DL5B /// KIR2DS1 /// KIR2DS2 /// KIR2DS3 /// KIR2DS4 /// KIR3DL3 /// KIR3DL3 /// KIR3DS1 (11738374_at) / RFU C1QL1 (11718748_at) / Fold change /veh C1QL1 (11718748_at) / RFU TMPRSS4 (11747572_a_at) / Fold change /veh TMPRSS4 (11747572_a_at) / RFU HAMP (11756126_x_at) / Fold change /veh HAMP (11756126_x_at) / RFU RNFT2 (11725882_a_at) / Fold change /veh RNFT2 (11725882_a_at) / RFU NR4A2 (11747474_a_at) / Fold change /veh NR4A2 (11747474_a_at) / RFU ABCC12 (11746883_a_at) / Fold change /veh ABCC12 (11746883_a_at) / RFU TMEM136 (11760407_x_at) / Fold change /veh TMEM136 (11760407_x_at) / RFU CLDN22 /// WWC2 (11732394_at) / Fold change /veh CLDN22 /// WWC2 (11732394_at) / RFU HLA-DPB1 (11760878_x_at) / Fold change /veh HLA-DPB1 (11760878_x_at) / RFU SPINT1 (11716480_a_at) / Fold change /veh SPINT1 (11716480_a_at) / RFU GAP43 (11754022_s_at) / Fold change /veh GAP43 (11754022_s_at) / RFU A4GNT (11735810_at) / Fold change /veh A4GNT (11735810_at) / RFU PRB3 (11715151_x_at) / Fold change /veh PRB3 (11715151_x_at) / RFU TUBB4B (11761932_at) / Fold change /veh TUBB4B (11761932_at) / RFU CAPN14 (11732068_a_at) / Fold change /veh CAPN14 (11732068_a_at) / RFU TMCC2 (11721928_a_at) / Fold change /veh TMCC2 (11721928_a_at) / RFU IRGQ (11745062_a_at) / Fold change /veh IRGQ (11745062_a_at) / RFU FAM174B (11720279_a_at) / Fold change /veh FAM174B (11720279_a_at) / RFU TMPRSS4 (11748680_a_at) / Fold change /veh TMPRSS4 (11748680_a_at) / RFU FAM212B (11763350_a_at) / Fold change /veh FAM212B (11763350_a_at) / RFU PLEKHG5 (11743358_a_at) / Fold change /veh PLEKHG5 (11743358_a_at) / RFU ZSCAN30 (11745921_a_at) / Fold change /veh ZSCAN30 (11745921_a_at) / RFU CMKLR1 (11741424_a_at) / Fold change /veh CMKLR1 (11741424_a_at) / RFU LOC101060620 /// MAPK8IP1 (11723275_at) / Fold change /veh LOC101060620 /// MAPK8IP1 (11723275_at) / RFU SPTSSB (11747773_x_at) / Fold change /veh SPTSSB (11747773_x_at) / RFU PRSS12 (11739890_at) / Fold change /veh PRSS12 (11739890_at) / RFU BIN1 (11741810_x_at) / Fold change /veh BIN1 (11741810_x_at) / RFU WNT11 (11732464_a_at) / Fold change /veh WNT11 (11732464_a_at) / RFU C10orf10 (11716521_a_at) / Fold change /veh C10orf10 (11716521_a_at) / RFU C5orf56 (11738089_at) / Fold change /veh C5orf56 (11738089_at) / RFU CYB561 (11721691_x_at) / Fold change /veh CYB561 (11721691_x_at) / RFU ANKRD19P (11752326_a_at) / Fold change /veh ANKRD19P (11752326_a_at) / RFU OR2T12 /// OR2T33 /// OR2T8 (11738714_s_at) / Fold change /veh OR2T12 /// OR2T33 /// OR2T8 (11738714_s_at) / RFU VCAN (11748164_a_at) / Fold change /veh VCAN (11748164_a_at) / RFU JSRP1 (11732532_at) / Fold change /veh JSRP1 (11732532_at) / RFU KRTAP10-11 (11738290_x_at) / Fold change /veh KRTAP10-11 (11738290_x_at) / RFU MYO3A (11730013_a_at) / Fold change /veh MYO3A (11730013_a_at) / RFU EBF3 (11725865_a_at) / Fold change /veh EBF3 (11725865_a_at) / RFU CAMK2N1 (11719241_x_at) / Fold change /veh CAMK2N1 (11719241_x_at) / RFU C5orf56 (11738088_a_at) / Fold change /veh C5orf56 (11738088_a_at) / RFU OLFML3 (11715873_a_at) / Fold change /veh OLFML3 (11715873_a_at) / RFU LOC100653217 /// NTM (11731650_a_at) / Fold change /veh LOC100653217 /// NTM (11731650_a_at) / RFU MAPK11 (11762145_a_at) / Fold change /veh MAPK11 (11762145_a_at) / RFU FIZ1 (11724087_x_at) / Fold change /veh FIZ1 (11724087_x_at) / RFU OASL (11726364_x_at) / Fold change /veh OASL (11726364_x_at) / RFU SOX15 (11748057_x_at) / Fold change /veh SOX15 (11748057_x_at) / RFU CD79A (11719716_a_at) / Fold change /veh CD79A (11719716_a_at) / RFU HIST1H1D (11736915_at) / Fold change /veh HIST1H1D (11736915_at) / RFU CASKIN2 (11723855_a_at) / Fold change /veh CASKIN2 (11723855_a_at) / RFU LOC730098 (11760151_x_at) / Fold change /veh LOC730098 (11760151_x_at) / RFU OR4N2 (11742367_at) / Fold change /veh OR4N2 (11742367_at) / RFU PRRT2 (11749266_a_at) / Fold change /veh PRRT2 (11749266_a_at) / RFU SNX32 (11753110_a_at) / Fold change /veh SNX32 (11753110_a_at) / RFU CDHR5 (11726645_a_at) / Fold change /veh CDHR5 (11726645_a_at) / RFU RCAN1 (11760418_a_at) / Fold change /veh RCAN1 (11760418_a_at) / RFU FAM167A (11723789_a_at) / Fold change /veh FAM167A (11723789_a_at) / RFU FAM26E (11764081_at) / Fold change /veh FAM26E (11764081_at) / RFU ISYNA1 (11749810_s_at) / Fold change /veh ISYNA1 (11749810_s_at) / RFU ACY1 (11761880_at) / Fold change /veh ACY1 (11761880_at) / RFU 11764098_at / Fold change /veh 11764098_at / RFU SAMD14 (11745864_x_at) / Fold change /veh SAMD14 (11745864_x_at) / RFU NPB (11741838_a_at) / Fold change /veh NPB (11741838_a_at) / RFU TMPRSS6 (11731388_a_at) / Fold change /veh TMPRSS6 (11731388_a_at) / RFU KRTAP10-2 (11738614_at) / Fold change /veh KRTAP10-2 (11738614_at) / RFU ARHGAP8 /// PRR5-ARHGAP8 (11727945_x_at) / Fold change /veh ARHGAP8 /// PRR5-ARHGAP8 (11727945_x_at) / RFU KRTAP5-7 /// NADSYN1 (11734609_at) / Fold change /veh KRTAP5-7 /// NADSYN1 (11734609_at) / RFU RASL12 (11751679_a_at) / Fold change /veh RASL12 (11751679_a_at) / RFU CDKN2B (11736163_a_at) / Fold change /veh CDKN2B (11736163_a_at) / RFU PRF1 (11729649_at) / Fold change /veh PRF1 (11729649_at) / RFU, ZNF638 /// ZNF638-IT1 / Fold change vs veh, ZNF638 /// ZNF638-IT1 / RFU, PANK3 / Fold change vs veh, PANK3 / RFU, SH3YL1 / Fold change vs veh, SH3YL1 / RFU, ZEB2 / Fold change vs veh, ZEB2 / RFU, NRIP1 / Fold change vs veh, NRIP1 / RFU, PTTG1IP / Fold change vs veh, PTTG1IP / RFU, CAPN2 / Fold change vs veh, CAPN2 / RFU, MED14 / Fold change vs veh, MED14 / RFU, SNORA58 / Fold change vs veh, SNORA58 / RFU, C1orf63 / Fold change vs veh, C1orf63 / RFU, LRRFIP1 / Fold change vs veh, LRRFIP1 / RFU, NDUFAF7 / Fold change vs veh, NDUFAF7 / RFU, SLC12A2 / Fold change vs veh, SLC12A2 / RFU, IBTK / Fold change vs veh, IBTK / RFU, ESF1 / Fold change vs veh, ESF1 / Fold change vs veh, TMEM50B / RFU, TAOK1 / Fold change vs veh, TAOK1 / RFU, ACBD3 / Fold change vs veh, ACBD3 / RFU, TMA16 / Fold change vs veh, TMA16 / RFU, RWDD3 / Fold change vs veh, RWDD3 / RFU, BCAT1 / Fold change vs veh, BCAT1 / RFU, EDEM3 / Fold change vs veh, EDEM3 / RFU, TMEM33 / Fold change vs veh, TMEM33 / RFU, WDR75 / Fold change vs veh, WDR75 / RFU, AHCTF1 / Fold change vs veh, AHCTF1 / RFU, TFRC / Fold change vs veh, TFRC / RFU, ZDHHC17 / Fold change vs veh, ZDHHC17 / RFU, NOM1 / Fold change vs veh, NOM1 / RFU, ARL8B / Fold change vs veh, ARL8B / RFU, ZBTB11 / Fold change vs veh, ZBTB11 / RFU, TAMM41 / Fold change vs veh, TAMM41 / RFU, KIAA1704 /// LOC100996395 / Fold change vs veh, KIAA1704 /// LOC100996395 / RFU, ING1 / Fold change vs veh, ING1 / RFU, TRMT61B / Fold change vs veh, TRMT61B / RFU, FUBP3 / Fold change vs veh, FUBP3 / RFU, TP53 / Fold change vs veh, TP53 / RFU, TNKS2 / Fold change vs veh, TNKS2 / RFU, ZFP14 / Fold change vs veh, ZFP14 / RFU, ACTR2 / Fold change vs veh, ACTR2 / RFU, PPP3R1 / Fold change vs veh, PPP3R1 / RFU, PIK3R1 / Fold change vs veh, PIK3R1 / RFU, HNRNPA1 / Fold change vs veh, HNRNPA1 / RFU, RNF170 / Fold change vs veh, RNF170 / RFU, ZNF28 / Fold change vs veh, ZNF28 / RFU, RNGTT / Fold change vs veh, RNGTT / RFU, OGT / Fold change vs veh, OGT / RFU, BRD1 / Fold change vs veh, BRD1 / RFU, MARS / Fold change vs veh, MARS / RFU, ZNF655 / Fold change vs veh, ZNF655 / RFU, FAHD1 / Fold change vs veh, FAHD1 / RFU, BDP1 / Fold change vs veh, BDP1 / RFU, LRRCC1 / Fold change vs veh, LRRCC1 / RFU, ARID1A / Fold change vs veh, ARID1A / RFU, ZNF146 / Fold change vs veh, ZNF146 / RFU, ZNF330 / Fold change vs veh, ZNF330 / RFU, GPN3 / Fold change vs veh, GPN3 / RFU, C9orf123 / Fold change vs veh, C9orf123 / RFU, N4BP2L2 / Fold change vs veh, N4BP2L2 / RFU, ARFIP1 / Fold change vs veh, ARFIP1 / RFU, FAM179B / Fold change vs veh, FAM179B / RFU, BCL10 / Fold change vs veh, BCL10 / RFU, UHRF1BP1L / Fold change vs veh, UHRF1BP1L / RFU, BET1 / Fold change vs veh, BET1 / RFU, CNOT2 / Fold change vs veh, CNOT2 / RFU, ZNF268 / Fold change vs veh, ZNF268 / Fold change vs veh, ZNF507 / RFU, DGCR2 / Fold change vs veh, DGCR2 / RFU, WDSUB1 / Fold change vs veh, WDSUB1 / Fold change vs veh, HSP90B1 /// MIR3652 / RFU, ADSS / Fold change vs veh, ADSS / RFU, GK / Fold change vs veh, GK / RFU, ZNF148 / Fold change vs veh, ZNF148 / RFU, TAF9 / Fold change vs veh, TAF9 / RFU, SLC1A5 / Fold change vs veh, SLC1A5 / RFU, SLMO2 / Fold change vs veh, SLMO2 / RFU, ABCC4 / Fold change vs veh, ABCC4 / RFU, LOC101060439 /// RAP1B / Fold change vs veh, LOC101060439 /// RAP1B / RFU, RFX7 / Fold change vs veh, RFX7 / RFU, GTPBP10 / Fold change vs veh, GTPBP10 / RFU, CNEP1R1 / Fold change vs veh, CNEP1R1 / RFU, BIVM-ERCC5 /// ERCC5 / Fold change vs veh, BIVM-ERCC5 /// ERCC5 / RFU, ILF3 / Fold change vs veh, ILF3 / RFU 11762660_at / Fold change /veh 11762660_at / RFU VCAN (11757783_s_at) / Fold change /veh VCAN (11757783_s_at) / RFU DDX43 (11728927_at) / Fold change /veh DDX43 (11728927_at) / RFU KRT8 (11758188_x_at) / Fold change /veh KRT8 (11758188_x_at) / RFU NKD1 (11759106_at) / Fold change /veh NKD1 (11759106_at) / RFU SRD5A1 (11742802_a_at) / Fold change /veh SRD5A1 (11742802_a_at) / RFU TPSAB1 /// TPSB2 (11721975_s_at) / Fold change /veh TPSAB1 /// TPSB2 (11721975_s_at) / RFU GSTM3 (11746129_a_at) / Fold change /veh GSTM3 (11746129_a_at) / RFU IL23R (11737362_x_at) / Fold change /veh IL23R (11737362_x_at) / RFU TMEM51 (11727254_a_at) / Fold change /veh TMEM51 (11727254_a_at) / RFU PIWIL2 (11732686_x_at) / Fold change /veh PIWIL2 (11732686_x_at) / RFU ORM1 (11744905_x_at) / Fold change /veh ORM1 (11744905_x_at) / RFU CCDC152 (11743942_at) / Fold change /veh CCDC152 (11743942_at) / RFU ECM1 (11717891_a_at) / Fold change /veh ECM1 (11717891_a_at) / RFU IL23R (11748794_a_at) / Fold change /veh IL23R (11748794_a_at) / RFU TNFAIP8L3 (11732012_x_at) / Fold change /veh TNFAIP8L3 (11732012_x_at) / RFU MBOAT4 (11741988_at) / Fold change /veh MBOAT4 (11741988_at) / RFU 11764193_at / Fold change /veh 11764193_at / RFU TMEM53 (11763286_at) / Fold change /veh TMEM53 (11763286_at) / RFU MAGEB2 (11727129_at) / Fold change /veh MAGEB2 (11727129_at) / RFU TMEM200A (11744735_a_at) / Fold change /veh TMEM200A (11744735_a_at) / RFU CCDC152 (11751479_a_at) / Fold change /veh CCDC152 (11751479_a_at) / RFU FAM211A (11726209_a_at) / Fold change /veh FAM211A (11726209_a_at) / RFU RGS16 (11746705_a_at) / Fold change /veh RGS16 (11746705_a_at) / RFU VCAN (11755009_s_at) / Fold change /veh VCAN (11755009_s_at) / RFU RHOB (11743442_s_at) / Fold change /veh RHOB (11743442_s_at) / RFU RGS16 (11720943_a_at) / Fold change /veh RGS16 (11720943_a_at) / RFU RGS16 (11720944_at) / Fold change /veh RGS16 (11720944_at) / RFU, VPS4B / Fold change vs veh, VPS4B / RFU, CREB1 / Fold change vs veh, CREB1 / RFU, DNAJC13 / Fold change vs veh, DNAJC13 / RFU, GNAQ / Fold change vs veh, GNAQ / RFU, CDK5R1 / Fold change vs veh, CDK5R1 / RFU, ZRANB3 / Fold change vs veh, ZRANB3 / RFU, CUL4A / Fold change vs veh, CUL4A / RFU, CCNY / Fold change vs veh, CCNY / RFU, UFL1 / Fold change vs veh, UFL1 / RFU, COG3 / Fold change vs veh, COG3 / RFU, DIAPH2 / Fold change vs veh, DIAPH2 / RFU, SKA2 / Fold change vs veh, SKA2 / RFU, AFF3 / Fold change vs veh, AFF3 / RFU, LMF1 / Fold change vs veh, LMF1 / RFU, IPO11 / Fold change vs veh, IPO11 / RFU, DFFB / Fold change vs veh, DFFB / RFU, FOXP1 / Fold change vs veh, FOXP1 / RFU, CARD8 / Fold change vs veh, CARD8 / RFU, STRN3 / Fold change vs veh, STRN3 / RFU, ADK / Fold change vs veh, ADK / RFU, RASSF2 / Fold change vs veh, RASSF2 / RFU, WIPF1 / Fold change vs veh, WIPF1 / RFU, LARP1B / Fold change vs veh, LARP1B / RFU, RASA1 / Fold change vs veh, RASA1 / RFU, RB1 / Fold change vs veh, RB1 / RFU, PPFIA1 / Fold change vs veh, PPFIA1 / RFU, MAT2A / Fold change vs veh, MAT2A / RFU, CCT5 / Fold change vs veh, CCT5 / RFU, WDR92 / Fold change vs veh, WDR92 / RFU, CUX1 / Fold change vs veh, CUX1 / RFU, TTC7A / Fold change vs veh, TTC7A / RFU, TMEM135 / Fold change vs veh, TMEM135 / RFU, DEPTOR / Fold change vs veh, DEPTOR / RFU, CPM / Fold change vs veh, CPM / RFU, DNAJB6 / Fold change vs veh, DNAJB6 / RFU, CACNA2D3 / Fold change vs veh, CACNA2D3 / RFU, DTX4 / Fold change vs veh, DTX4 / RFU, TFCP2 / Fold change vs veh, TFCP2 / RFU, GMCL1 /// GMCL1P1 / Fold change vs veh, GMCL1 /// GMCL1P1 / RFU, AEBP2 / Fold change vs veh, AEBP2 / RFU, SNHG1 /// SNORD22 /// SNORD25 /// SNORD26 /// SNORD27 /// SNORD28 /// SNORD29 /// SNORD31 / Fold change vs veh, SNHG1 /// SNORD22 /// SNORD25 /// SNORD26 /// SNORD27 /// SNORD28 /// SNORD29 /// SNORD31 / Fold change (Aza/veh), C12orf56 (ProbeSet 11735607_a_at) / Fold change (ACY-1035/veh), C12orf56 (ProbeSet 11735607_a_at) / Fold change (Aza/veh), FGFR1OP (ProbeSet 11751329_s_at) / Fold change (ACY-1035/veh), FGFR1OP (ProbeSet 11751329_s_at) / Fold change (Aza/veh), VPS36 (ProbeSet 11739960_a_at) / Fold change (ACY-1035/veh), VPS36 (ProbeSet 11739960_a_at) / RFU SYPL1 (11715823_x_at) / Fold change /veh SYPL1 (11715823_x_at) / RFU IGFBP7 (11715501_s_at) / Fold change /veh IGFBP7 (11715501_s_at) / RFU REEP3 (11722064_at) / Fold change /veh REEP3 (11722064_at) / RFU IGLL1 (11728026_x_at) / Fold change /veh IGLL1 (11728026_x_at): dose or concentration left out as unconfirmed", "conditions": "ProbeSet 11732370_a_at; LIST D"}
{"compound": "Nc1ccc(-c2cccs2)cc1NC(=O)c1ccc2c(c1)cc(C1CC1)n2CCN1CCOCC1", "note": "[ACY-1035]", "values": [{"measurement": "RFU, CUX1", "result": 235.11, "unit": "RFU"}]}
